Assay results reported in EP0145493A2, “11-Difluoromethyl and 11-fluoromethylene steroids” (THE UPJOHN COMPANY, priority 1983, dated 1985).

Target: T1, progesterone receptor (Oryctolagus cuniculus, UniProt P06186)
T1 construct: 'Rabbit, progesterone = 100%; from tissue; host or cells: Rabbit; From own knowledge, the cited Philibert procedure uses uterine cytosol
T1 sequence (P06186 1-930): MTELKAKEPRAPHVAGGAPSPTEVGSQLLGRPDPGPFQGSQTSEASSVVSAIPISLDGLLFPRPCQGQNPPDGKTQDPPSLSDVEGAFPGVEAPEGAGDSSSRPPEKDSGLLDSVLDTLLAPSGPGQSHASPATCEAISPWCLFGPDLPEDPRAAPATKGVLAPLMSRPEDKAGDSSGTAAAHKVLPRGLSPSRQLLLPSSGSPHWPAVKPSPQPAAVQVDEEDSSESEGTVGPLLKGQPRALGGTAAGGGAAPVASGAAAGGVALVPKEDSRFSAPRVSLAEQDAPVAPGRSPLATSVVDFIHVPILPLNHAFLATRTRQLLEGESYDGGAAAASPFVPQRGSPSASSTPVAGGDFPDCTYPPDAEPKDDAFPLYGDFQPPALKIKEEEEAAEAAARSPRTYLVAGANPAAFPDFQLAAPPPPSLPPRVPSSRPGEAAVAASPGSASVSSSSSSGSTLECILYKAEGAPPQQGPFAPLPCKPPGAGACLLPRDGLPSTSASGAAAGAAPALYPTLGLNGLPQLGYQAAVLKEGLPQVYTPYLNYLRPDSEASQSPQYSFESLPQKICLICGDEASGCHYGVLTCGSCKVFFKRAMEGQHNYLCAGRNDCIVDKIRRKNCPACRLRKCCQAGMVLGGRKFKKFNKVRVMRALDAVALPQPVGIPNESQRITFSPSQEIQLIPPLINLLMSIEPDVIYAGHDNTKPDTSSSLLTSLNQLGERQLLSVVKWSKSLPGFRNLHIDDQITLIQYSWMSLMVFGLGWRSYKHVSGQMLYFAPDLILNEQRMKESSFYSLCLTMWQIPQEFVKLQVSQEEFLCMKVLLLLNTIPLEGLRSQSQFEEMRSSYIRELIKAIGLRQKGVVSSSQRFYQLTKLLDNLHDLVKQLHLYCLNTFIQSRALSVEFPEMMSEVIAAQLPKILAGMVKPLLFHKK
Test: progesterone receptor relative binding affinity (procedure of Philibert et al.)
Conditions: Rabbit, progesterone = 100%
From the text: Biological information in the form of progesterone receptor relative binding affinity data determined according to the procedure of D. Philibert et al, Endocrinology 101, 1850 (1977) set forth in TABLE 1 discloses the 11β-difluoromethyl and (E)-11-fluoromethylene steroids to be useful as progestins.
'Rabbit, progesterone = 100%

Row | SMILES | Relative Binding Affinity' (%)
1 | CC#C[C@]1(O)CC[C@H]2[C@H]3[C@H]([C@@H](C(F)F)C[C@@]21C)[C@H]1CCC(=O)C=C1C[C@H]3C [11β-Difluoromethyl-17β-hydroxy-7α-methyl-17α-propynylestr-4-en-3-one] | 41
2 | CC#C[C@]1(O)CC[C@H]2[C@@H]3CCC4C=CCC[C@@H]4[C@H]3[C@@H](C(F)F)C[C@@]21C (stereo partly drawn) [11β-Difluoromethyl-17β-hydroxy-17α-propynylestr-3-ene] | 2
3 | CC#CC1(OC(C)=O)CCC2C3CCC4=CC(=O)CCC4C3C(C(F)F)CC21C (stereo not drawn) [11β-Difluoromethyl-17β-hydroxy-17α-propynylestr-4-en-3-one 17-acetate] | 49
4 | CC#CC1(OC)CCC2C3CCC4=CC(=O)CCC4C3C(C(F)F)CC21C (stereo not drawn) [11β-Difluoromethyl-17β-hydroxy-17α-propynylestr-4-en-3-one 17-methyl ether] | 90
5 | CC#C[C@]1(O)CC[C@H]2[C@@H]3CCC4=CC(=O)CC[C@@H]4[C@H]3[C@@H](C(F)F)C[C@@]21C [11β-Difluoromethyl-17β-hydroxy-17α-propynylestr-4-en-3-one] | 68
6 | CC#C[C@]1(O)CC[C@H]2[C@@H]3CCC4=CCCC[C@@H]4[C@H]3[C@@H](C(F)F)C[C@@]21C [11β-Difluoromethyl-17β-hydroxy-17α-propynylestr-4-ene] | 3
7 | CO[C@H]1CC[C@H]2[C@@H]3CCC4=CC(=O)CC[C@@H]4[C@H]3[C@@H](C(F)F)C[C@]12C [11β-Difluoromethyl-17β-hydroxyestr-4-en-3-one 17-methyl ether] | 66
8 | C[C@]12C[C@H](C(F)F)[C@H]3[C@@H](CCC4=CC(=O)CC[C@@H]43)[C@@H]1CC[C@@H]2O [11β-Difluoromethyl-17β-hydroxyestr-4-en-3-one] | 13
9 | C#C[C@]1(O)CC[C@H]2[C@@H]3CCC4=CC(=O)CC[C@@H]4[C@H]3/C(=C/F)C[C@@]21CC [13β-Ethyl-17α-ethynyl-(E)-11-fluoromethylene-17β-hydroxygon-4-en-3-one] | 100
10 | CC#C[C@]1(O)CC[C@H]2[C@@H]3CCC4=CC(=O)CC[C@@H]4[C@H]3/C(=C/F)C[C@@]21CC [13β-Ethyl-(E)-11-fluoromethylene-17β-hydroxy-17α-propynylgon-4-en-3-one] | 63
11 | CC#C[C@]1(O)CC[C@H]2[C@@H]3CCC4=CC(=O)CC[C@@H]4[C@H]3/C(=C\F)C[C@@]21CC [13β-Ethyl-(Z)-11-fluoromethylene-17β-hydroxy-17α-propynylgon-4-en-3-one] | 149
12 | C#C[C@]1(O)CC[C@H]2[C@H]3[C@H]([C@@H](C(F)F)C[C@@]21C)[C@H]1CCC(=O)C=C1C[C@H]3C [17α-Ethynyl-11β-difluoromethyl-17β-hydroxy-7α-methylestr-4-en-3-one] | 63
13 | C#CC1(OC(C)=O)CCC2C3CCC4=CC(=O)CCC4C3C(C(F)F)CC21C (stereo not drawn) [17α-Ethynyl-11β-difluoromethyl-17β-hydroxyestr-4-en-3-one 17-acetate] | 50
14 | C#CC1(OC)CCC2C3CCC4=CC(=O)CCC4C3C(C(F)F)CC21C (stereo not drawn) [17α-Ethynyl-11β-difluoromethyl-17β-hydroxyestr-4-en-3-one 17-methyl ether] | 145
15 | C#CC1(O)CCC2C3CCC4=CC5(CCC4C3C(C(F)F)CC21C)SCCS5 (stereo not drawn) [17α-Ethynyl-11β-difluoromethyl-17β-hydroxyestr-4-ene-3-one 3-ethanedithiol ketal] | 92
16 | C#C[C@]1(O)CC[C@H]2[C@@H]3CCC4=CCCC[C@@H]4[C@H]3[C@@H](C(F)F)C[C@@]21C [17α-Ethynyl-11β-difluoromethyl-17β-hydroxyestr-4-ene] | 2
17 | C#C[C@]1(O)CC[C@H]2[C@H]3[C@H](/C(=C/F)C[C@@]21C)[C@H]1CCC(=O)C=C1C[C@H]3C [17α-Ethynyl-(E)-11-fluoromethylene-17β-hydroxy-7α-methylestr-4-en-3-one] | 34
18 | C#C[C@]1(O)CC[C@H]2[C@@H]3CCC4=CC(=O)CC[C@@H]4[C@H]3/C(=C/F)C[C@@]21C [17α-Ethynyl-(E)-11-fluoromethylene-17β-hydroxyestr-4-en-3-one] | 74
19 | C#C[C@]1(O)CC[C@H]2[C@@H]3CCC4=CC(=O)CC[C@@H]4[C@H]3/C(=C\F)C[C@@]21C [17α-Ethynyl-(Z)-11-fluoromethylene-17β-hydroxyestr-4-en-3-one] | 149
20 | CC#C[C@]1(O)CC[C@H]2[C@H]3[C@H](/C(=C/F)C[C@@]21C)[C@H]1CCC(=O)C=C1C[C@H]3C [(E)-11-Fluoromethylene-17β-hydroxy-7α-methyl-17α-propynylestr-4-en-3-one] | 58
21 | CC#CC1(OC)CCC2C3CCC4=CC(=O)CCC4C3C(=CF)CC21C (stereo not drawn) [(E)-11-Fluoromethylene-17β-hydroxy-17α-propynylestr-4-en-3-one 17-methyl ether] | 71
22 | CC#C[C@]1(O)CC[C@H]2[C@@H]3CCC4=CC(=O)CC[C@@H]4[C@H]3/C(=C/F)C[C@@]21C [(E)-11-fluoromethylene-17β-hydroxy-17α-propynylestr-4-ene-3-one] | 18
23 | CC#C[C@]1(O)CC[C@H]2[C@@H]3CCC4=CC(=O)CC[C@@H]4[C@H]3/C(=C\F)C[C@@]21C [(Z)-11-Fluoromethylene-17β-hydroxy-17-propynylestr-4-en-3-one] | 150
